Results reported in BindingDB's records for doi:10.1111/j.1476-5381.1995.tb15922.x (Syntex Discovery Research, 1995).

Experiments:
[1] = biological target: 5-hydroxytryptamine receptor 4 (Cavia porcellus, UniProt O70528)
[2] = biological target: Glutamate receptor ionotropic, NMDA 1 (Rattus norvegicus, UniProt P35439)
[3] = biological target: T1, 5-hydroxytryptamine receptor 2C (Homo sapiens, UniProt P28335)
T1 sequence (P28335 whole entry): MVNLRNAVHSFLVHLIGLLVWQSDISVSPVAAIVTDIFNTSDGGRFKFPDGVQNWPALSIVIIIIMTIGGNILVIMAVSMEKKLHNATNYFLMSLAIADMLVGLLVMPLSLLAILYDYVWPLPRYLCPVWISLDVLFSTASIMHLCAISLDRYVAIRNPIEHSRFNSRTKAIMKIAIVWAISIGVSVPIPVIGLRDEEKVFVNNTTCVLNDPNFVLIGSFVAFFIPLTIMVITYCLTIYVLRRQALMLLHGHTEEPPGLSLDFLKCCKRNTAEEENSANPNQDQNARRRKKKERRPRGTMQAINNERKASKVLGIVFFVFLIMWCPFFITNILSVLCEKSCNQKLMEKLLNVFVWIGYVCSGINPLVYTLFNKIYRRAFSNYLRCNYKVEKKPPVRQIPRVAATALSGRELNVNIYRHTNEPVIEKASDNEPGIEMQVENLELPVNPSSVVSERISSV

D(1A) dopamine receptor = D(1A) dopamine receptor (Homo sapiens, UniProt P21728)
[4] = biological target: T2, Type-1 angiotensin II receptor (Xenopus tropicalis, UniProt B3DLC0)
T2 sequence (B3DLC0 whole entry): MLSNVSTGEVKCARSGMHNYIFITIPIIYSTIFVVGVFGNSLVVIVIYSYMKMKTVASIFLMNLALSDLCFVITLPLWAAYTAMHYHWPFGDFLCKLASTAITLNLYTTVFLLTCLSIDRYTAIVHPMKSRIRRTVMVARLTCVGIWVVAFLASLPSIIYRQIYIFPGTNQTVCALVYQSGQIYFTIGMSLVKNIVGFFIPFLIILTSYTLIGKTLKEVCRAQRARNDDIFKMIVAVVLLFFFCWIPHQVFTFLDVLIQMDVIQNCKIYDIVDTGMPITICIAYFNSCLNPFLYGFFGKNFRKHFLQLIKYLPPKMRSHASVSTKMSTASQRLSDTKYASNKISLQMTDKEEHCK

[5] = biological target: T3, Muscarinic acetylcholine receptor M2 (Homo sapiens, UniProt P08172)
T3 sequence (P08172 whole entry): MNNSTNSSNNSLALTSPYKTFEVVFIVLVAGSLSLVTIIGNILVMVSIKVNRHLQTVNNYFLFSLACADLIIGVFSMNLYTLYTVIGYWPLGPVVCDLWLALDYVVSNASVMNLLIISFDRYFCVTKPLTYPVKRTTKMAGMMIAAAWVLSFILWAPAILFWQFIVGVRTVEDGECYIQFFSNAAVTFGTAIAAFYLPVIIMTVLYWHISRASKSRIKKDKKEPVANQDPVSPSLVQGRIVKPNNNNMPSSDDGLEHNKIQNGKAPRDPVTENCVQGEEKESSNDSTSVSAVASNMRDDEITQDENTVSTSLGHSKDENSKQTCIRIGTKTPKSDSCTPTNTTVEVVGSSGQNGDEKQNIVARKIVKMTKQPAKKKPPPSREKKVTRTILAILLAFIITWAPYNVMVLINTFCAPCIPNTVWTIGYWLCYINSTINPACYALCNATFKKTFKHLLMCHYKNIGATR

D(2) dopamine receptor = D(2) dopamine receptor (Homo sapiens, UniProt P14416)
[6] = biological target: T4, Alpha-1A adrenergic receptor (Homo sapiens, UniProt P35348)
T4 sequence (P35348 whole entry): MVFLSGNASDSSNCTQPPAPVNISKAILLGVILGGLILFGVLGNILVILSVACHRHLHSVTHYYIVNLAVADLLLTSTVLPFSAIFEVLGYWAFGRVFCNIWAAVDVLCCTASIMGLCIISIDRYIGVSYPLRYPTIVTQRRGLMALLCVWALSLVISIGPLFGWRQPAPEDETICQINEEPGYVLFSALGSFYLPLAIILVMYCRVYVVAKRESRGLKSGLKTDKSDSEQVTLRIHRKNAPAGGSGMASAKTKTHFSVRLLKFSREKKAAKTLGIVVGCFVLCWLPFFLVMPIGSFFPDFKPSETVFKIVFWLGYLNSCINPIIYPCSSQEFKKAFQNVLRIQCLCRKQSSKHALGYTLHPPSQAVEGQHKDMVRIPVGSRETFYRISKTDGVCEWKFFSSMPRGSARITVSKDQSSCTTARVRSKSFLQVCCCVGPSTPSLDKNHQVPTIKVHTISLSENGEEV

[7] = biological target: T5, Muscarinic acetylcholine receptor M1 (Homo sapiens, UniProt P11229)
T5 sequence (P11229 whole entry): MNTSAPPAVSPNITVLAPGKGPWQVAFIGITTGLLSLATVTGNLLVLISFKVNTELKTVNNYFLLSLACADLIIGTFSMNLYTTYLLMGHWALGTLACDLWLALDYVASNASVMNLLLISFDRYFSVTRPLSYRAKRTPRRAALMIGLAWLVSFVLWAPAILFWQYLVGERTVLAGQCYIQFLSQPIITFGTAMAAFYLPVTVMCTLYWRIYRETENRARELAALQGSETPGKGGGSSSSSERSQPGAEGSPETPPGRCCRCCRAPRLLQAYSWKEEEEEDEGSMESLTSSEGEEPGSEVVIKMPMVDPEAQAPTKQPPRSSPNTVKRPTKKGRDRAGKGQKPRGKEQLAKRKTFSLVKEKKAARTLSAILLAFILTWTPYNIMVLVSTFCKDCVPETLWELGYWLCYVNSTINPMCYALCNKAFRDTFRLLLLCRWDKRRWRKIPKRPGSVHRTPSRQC

[8] = biological target: T6, 5-hydroxytryptamine receptor 3A (Homo sapiens, UniProt P46098)
T6 sequence (P46098 whole entry): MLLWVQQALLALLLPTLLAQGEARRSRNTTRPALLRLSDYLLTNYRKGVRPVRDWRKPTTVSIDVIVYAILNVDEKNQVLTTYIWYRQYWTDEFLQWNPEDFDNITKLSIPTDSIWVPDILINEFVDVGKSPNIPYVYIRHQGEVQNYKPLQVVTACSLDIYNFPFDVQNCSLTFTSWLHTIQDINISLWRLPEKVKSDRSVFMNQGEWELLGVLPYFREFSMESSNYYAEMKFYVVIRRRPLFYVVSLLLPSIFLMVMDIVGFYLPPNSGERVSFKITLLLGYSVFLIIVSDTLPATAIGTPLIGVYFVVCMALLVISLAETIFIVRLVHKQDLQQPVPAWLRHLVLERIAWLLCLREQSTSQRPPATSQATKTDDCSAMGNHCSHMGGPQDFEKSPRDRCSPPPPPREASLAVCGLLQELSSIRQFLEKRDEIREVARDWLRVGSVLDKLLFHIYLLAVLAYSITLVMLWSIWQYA

B1 bradykinin receptor = biological target: T7, B1 bradykinin receptor (Homo sapiens, UniProt P46663)
T7 sequence (P46663 whole entry): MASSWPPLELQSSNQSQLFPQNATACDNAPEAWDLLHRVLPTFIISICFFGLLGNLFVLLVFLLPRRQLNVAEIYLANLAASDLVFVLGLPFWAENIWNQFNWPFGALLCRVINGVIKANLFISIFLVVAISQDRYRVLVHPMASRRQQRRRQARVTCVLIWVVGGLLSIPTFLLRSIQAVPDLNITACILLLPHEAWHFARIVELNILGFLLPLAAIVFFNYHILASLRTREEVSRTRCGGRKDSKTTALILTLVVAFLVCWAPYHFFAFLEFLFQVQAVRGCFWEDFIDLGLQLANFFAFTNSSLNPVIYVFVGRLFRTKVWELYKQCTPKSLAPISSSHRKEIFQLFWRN

Mu-type opioid receptor = Mu-type opioid receptor (Rattus norvegicus, UniProt P33535)
Chain of Mu-type opioid receptor (P33535 whole entry): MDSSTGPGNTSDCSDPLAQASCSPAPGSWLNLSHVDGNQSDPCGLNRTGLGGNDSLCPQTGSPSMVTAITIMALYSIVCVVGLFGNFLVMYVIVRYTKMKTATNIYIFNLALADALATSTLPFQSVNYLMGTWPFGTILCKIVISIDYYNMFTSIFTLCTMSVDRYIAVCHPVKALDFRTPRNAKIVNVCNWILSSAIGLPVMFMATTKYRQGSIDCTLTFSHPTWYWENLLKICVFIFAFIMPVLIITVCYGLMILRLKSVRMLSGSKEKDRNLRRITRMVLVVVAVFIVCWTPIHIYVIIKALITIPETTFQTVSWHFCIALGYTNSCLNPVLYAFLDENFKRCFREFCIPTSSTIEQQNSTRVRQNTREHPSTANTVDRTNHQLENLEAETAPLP

Chain of D(1A) dopamine receptor (P21728 whole entry): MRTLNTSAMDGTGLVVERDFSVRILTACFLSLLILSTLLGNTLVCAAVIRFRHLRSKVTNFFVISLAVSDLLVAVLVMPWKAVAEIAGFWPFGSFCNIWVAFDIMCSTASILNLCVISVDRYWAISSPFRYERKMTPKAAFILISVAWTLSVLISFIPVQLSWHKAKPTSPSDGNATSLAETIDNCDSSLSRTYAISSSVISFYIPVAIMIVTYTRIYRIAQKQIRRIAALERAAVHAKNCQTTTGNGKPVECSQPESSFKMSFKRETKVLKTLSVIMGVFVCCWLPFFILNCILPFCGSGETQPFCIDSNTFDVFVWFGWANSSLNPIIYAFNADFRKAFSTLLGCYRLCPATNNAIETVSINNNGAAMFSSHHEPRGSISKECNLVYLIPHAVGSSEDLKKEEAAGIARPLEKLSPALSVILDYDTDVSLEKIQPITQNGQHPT
Chain of D(2) dopamine receptor (P14416 whole entry): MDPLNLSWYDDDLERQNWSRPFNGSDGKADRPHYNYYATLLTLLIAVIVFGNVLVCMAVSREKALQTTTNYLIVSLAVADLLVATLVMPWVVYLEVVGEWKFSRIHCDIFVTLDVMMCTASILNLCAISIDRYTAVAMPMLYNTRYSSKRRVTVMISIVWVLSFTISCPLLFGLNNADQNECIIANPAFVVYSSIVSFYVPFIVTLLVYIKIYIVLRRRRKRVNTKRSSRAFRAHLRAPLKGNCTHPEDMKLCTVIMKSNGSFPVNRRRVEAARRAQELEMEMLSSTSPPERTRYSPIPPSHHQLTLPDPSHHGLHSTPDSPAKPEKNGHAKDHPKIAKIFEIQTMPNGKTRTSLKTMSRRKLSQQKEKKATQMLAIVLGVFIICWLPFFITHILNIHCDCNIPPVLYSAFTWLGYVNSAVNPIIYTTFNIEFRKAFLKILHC
Chain of 5-hydroxytryptamine receptor 4 (O70528 whole entry): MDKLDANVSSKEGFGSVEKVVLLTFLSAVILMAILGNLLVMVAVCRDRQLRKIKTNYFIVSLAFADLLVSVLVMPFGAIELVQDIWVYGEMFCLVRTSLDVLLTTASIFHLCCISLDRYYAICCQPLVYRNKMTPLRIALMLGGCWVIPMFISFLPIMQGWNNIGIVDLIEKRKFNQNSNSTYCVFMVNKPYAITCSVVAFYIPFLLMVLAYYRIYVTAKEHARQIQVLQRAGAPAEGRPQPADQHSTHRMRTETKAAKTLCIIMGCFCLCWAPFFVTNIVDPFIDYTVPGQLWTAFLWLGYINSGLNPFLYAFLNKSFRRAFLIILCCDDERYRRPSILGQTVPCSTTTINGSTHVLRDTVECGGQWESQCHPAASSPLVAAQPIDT

In the case of `COc1cc(COc2cc(N)c(Cl)cc2C(=O)CCC2CCN(CCNS(C)(=O)=O)CC2)cc(OC)c1` [CAS_167710-87-4], the Ki [1] is reported as 0.79 nM, the Ki [2] is reported as 1000 nM and the Ki [3] is reported as 794 nM. For the same compound, the Ki (D(1A) dopamine receptor) was 1000 nM, the Ki [4] was greater than 10000 nM and the Ki [5] was 1000 nM. For the same compound, the Ki (D(2) dopamine receptor) was 1000 nM, the Ki [6] was 398 nM and the Ki [7] was 1000 nM. It also gave a Ki [8] of 1000 nM, a Ki (B1 bradykinin receptor) greater than 10000 nM and a Ki (Mu-type opioid receptor) of 1000 nM.
